Experimental findings from PubChem BioAssay (NCI) are described below.

Several values for one entry are separate records, joined by “and”; a condition that tells them apart may be missing. Equal entries are not always repeated.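 Method: 48-hour compound exposure of cells in 96-well plates, five concentrations, linear interpolation of endpoints. Here, GI50 denotes the concentration required for 50% inhibition of growth. Definition used: TGI = concentration required for complete inhibition of growth.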

Some test systems named below: MALME-3M melanoma; TK-10 renal; UO-31 renal; SW-620 colon; SNB-19 CNS; HCC-2998 colon; OVCAR-8 ovarian; M14 melanoma; NCI-H226 lung.
Test in all cases: NCI anticancer screen, dose series, 48 h

Consider `CCOC(=O)c1cc(C(=O)O)c(=O)n2c1[nH]c1ccccc12`, for which the TGI in the experiment with MALME-3M melanoma was greater than 100 µM; in the experiment with TK-10 renal, greater than 100 µM; in the experiment with UO-31 renal, 87.7 µM; in the experiment on SW-620 colon, greater than 100 µM; with SNB-19 CNS, greater than 100 µM; in the experiment with HCC-2998 colon, greater than 100 µM. The TGI in the experiment on OVCAR-8 ovarian and with M14 melanoma was greater than 100 µM each time.
`CN1C=C(C(N)=O)C2CC(O)[C@@](NC(=O)CS(N)(=O)=O)(C(=O)O)C2C1` (some centres not stated): the TGI with MALME-3M melanoma is 20.3 µM; in the experiment with TK-10 renal it was 28.5 µM; in the experiment with UO-31 renal, 14.1 µM; with SW-620 colon, greater than 91.5 µM; in the experiment with SNB-19 CNS, 19.3 µM; in the experiment with HCC-2998 colon, 34 µM. Further, the values for the TGI in the experiment with OVCAR-8 ovarian, in the experiment with NCI-H226 lung and in the experiment on M14 melanoma were 18.2 µM, 8.52 µM and 2.8 µM, respectively.
`O=C1[C@H]2ON(c3ccccc3)C(c3cccc([N+](=O)[O-])c3)[C@H]2C(=O)N1c1ccc(Cc2ccc(N3C(=O)[C@@H]4ON(c5ccccc5)C(c5cccc([N+](=O)[O-])c5)[C@@H]4C3=O)cc2)cc1` (some centres not stated): the TGI with MALME-3M melanoma, in the experiment on TK-10 renal, in the experiment on UO-31 renal, in the experiment on SW-620 colon, in the experiment on SNB-19 CNS and with HCC-2998 colon was greater than 100 µM in each case. Further, the TGI in the experiment on OVCAR-8 ovarian is greater than 100 µM; in the experiment with NCI-H226 lung it was greater than 100 µM; in the experiment with M14 melanoma, 60.8 µM.
In the case of `CC(C)(C)c1cc(C(=O)O)c(C(c2ccccc2)c2ccccc2C(=O)O)c(C(=O)O)c1` (configuration not stated), the TGI with MALME-3M melanoma, in the experiment on TK-10 renal, in the experiment on UO-31 renal, in the experiment on SW-620 colon, in the experiment on SNB-19 CNS and in the experiment on OVCAR-8 ovarian was greater than 100 µM in each case. Further, the TGI in the experiment with NCI-H226 lung was 76.7 µM; in the experiment on M14 melanoma it was greater than 100 µM.
On to `COC(=O)Cc1cc(=O)oc2c1C(=O)CCC2`, for which the TGI in the experiment with MALME-3M melanoma, in the experiment on TK-10 renal, in the experiment on UO-31 renal, in the experiment with SW-620 colon, with SNB-19 CNS and in the experiment with HCC-2998 colon was greater than 100 µM each time. The TGI in the experiment with OVCAR-8 ovarian, in the experiment with NCI-H226 lung and in the experiment on M14 melanoma was greater than 100 µM throughout.
In the case of `BrC(Br)([P+](c1ccccc1)(c1ccccc1)c1ccccc1)[P+](c1ccccc1)(c1ccccc1)c1ccccc1`, the TGI is 26.2 µM with MALME-3M melanoma; greater than 100 µM with TK-10 renal; greater than 100 µM with UO-31 renal; 29.6 µM with SW-620 colon; 31.8 µM in the experiment with HCC-2998 colon; 26.4 µM with OVCAR-8 ovarian. The TGI with NCI-H226 lung turned out to be 73 µM; in the experiment with M14 melanoma it was 48.9 µM.
Consider `c1cc2ccc1C1NCCCN1CCN1CCCNC1c1ccc(cc1)C1NCCCN1CCN1CCCNC21` (configuration not stated), for which the TGI was greater than 100 µM with MALME-3M melanoma; greater than 100 µM in the experiment with TK-10 renal; greater than 100 µM in the experiment on UO-31 renal; 48.5 µM in the experiment on SW-620 colon; greater than 100 µM in the experiment with SNB-19 CNS; greater than 100 µM with OVCAR-8 ovarian. This compound returned a TGI in the experiment on M14 melanoma greater than 100 µM.
Consider `O=C(NOC(=O)c1ccc([N+](=O)[O-])cc1)c1ccc(Cl)cc1`, for which the TGI in the experiment on MALME-3M melanoma, with UO-31 renal, with SW-620 colon, with SNB-19 CNS, in the experiment on HCC-2998 colon and with OVCAR-8 ovarian was greater than 100 µM throughout. The compound further showed a TGI in the experiment with M14 melanoma greater than 100 µM.
Turning to `CC12O[Te]34OC1(C)C(C)(O3)C2(C)O4`, the TGI in the experiment with MALME-3M melanoma came to 32.7 µM; in the experiment on TK-10 renal it was 29.4 µM; in the experiment with UO-31 renal it was 23.5 µM; in the experiment with SW-620 colon, 32.6 µM; with SNB-19 CNS, 37.5 µM; in the experiment with HCC-2998 colon, 14.1 µM. Also, the TGI was determined as 24.4 µM in the experiment with OVCAR-8 ovarian, 44.6 µM with NCI-H226 lung and 33.7 µM in the experiment with M14 melanoma.
Turning to `CN1C(=O)CC2(C)c3cc(C=O)ccc3N(C)C12` (configuration not stated), the TGI in the experiment with MALME-3M melanoma, in the experiment with TK-10 renal, in the experiment with UO-31 renal, in the experiment with SW-620 colon, in the experiment on SNB-19 CNS and in the experiment on HCC-2998 colon was greater than 100 µM each time. For the same compound, the TGI with OVCAR-8 ovarian, in the experiment on NCI-H226 lung and with M14 melanoma was greater than 100 µM in each case.
As for `C=C1c2ccccc2N(S(=O)(=O)c2ccc(C)cc2)C12CCCCC2`, the TGI in the experiment with MALME-3M melanoma, in the experiment with TK-10 renal, in the experiment with UO-31 renal, in the experiment on SW-620 colon, in the experiment on SNB-19 CNS and with HCC-2998 colon was greater than 100 µM throughout. Besides, the TGI in the experiment with OVCAR-8 ovarian, in the experiment on NCI-H226 lung and in the experiment with M14 melanoma was greater than 100 µM in each case.
With `O=C1OC(c2ccc(Cl)c3ccccc23)c2ccccc21` (configuration not stated), the TGI in the experiment on MALME-3M melanoma, with UO-31 renal, with SNB-19 CNS, with HCC-2998 colon, with OVCAR-8 ovarian and in the experiment on M14 melanoma was greater than 100 µM throughout.
In the case of `COc1cc(-c2nn3c(=O)n(-c4ccc(Cl)cc4)c(=O)nc3s2)cc(OC)c1OC`, the GI50 is greater than 50 µM with MALME-3M melanoma; 19.7 µM in the experiment with TK-10 renal; greater than 50 µM in the experiment on UO-31 renal; greater than 50 µM with SW-620 colon; 37.4 µM with SNB-19 CNS; greater than 50 µM in the experiment with HCC-2998 colon. The GI50 is greater than 50 µM with NCI-H226 lung and 28 µM in the experiment with M14 melanoma. The TGI with MALME-3M melanoma was greater than 100 µM; in the experiment with TK-10 renal, 50 µM and 29.6 µM; in the experiment with UO-31 renal, greater than 100 µM; in the experiment on SW-620 colon, greater than 100 µM; in the experiment on SNB-19 CNS, 50 µM and 83.8 µM; in the experiment on HCC-2998 colon it was greater than 100 µM. Moreover, the TGI was greater than 100 µM with OVCAR-8 ovarian; greater than 100 µM with NCI-H226 lung; 50 µM and > 100 µM with M14 melanoma.
As to `C(/C=C/N1CCCC1)=C\c1nc(N2CCCC2)c2ccccc2n1`, the TGI was 33 µM with MALME-3M melanoma; greater than 100 µM in the experiment with TK-10 renal; 29.2 µM with UO-31 renal; 29.8 µM with SW-620 colon; 36.3 µM with SNB-19 CNS; 31.3 µM with HCC-2998 colon. Moreover, the TGI was greater than 100 µM in the experiment on OVCAR-8 ovarian, 39.7 µM in the experiment on NCI-H226 lung and 33.5 µM with M14 melanoma.
With `CCC1(Cl)C(=O)NC(=O)N(C2CC(O)C(CO)O2)C1N=[N+]=[N-]` (configuration not stated), the TGI in the experiment with MALME-3M melanoma, with TK-10 renal, with UO-31 renal, in the experiment with SW-620 colon, in the experiment with SNB-19 CNS and in the experiment with HCC-2998 colon was greater than 100 µM in each case. The TGI with OVCAR-8 ovarian and with M14 melanoma was greater than 100 µM in each case.
